Measurements taken from patent US20070191393A1, “Macrocyclic anilinopyrimidines with substituted sulphoximine as selective inhibitors of cell cycle kinases” (priority 2006, published 2007).

Legend:
Format in all cases: biochemical
CDK2/CycE = target: T1, CDK2/CycE (Homo sapiens, UniProt P24941); assay: CDK2/CycE kinase assay; settings: 0.5 μM ATP, 22° C., 10 min
T1 construct: GST; purchased ProQinase GmbH, Freiburg; host or cells: baculovirus-infected Sf9 insect cells
Method: Recombinant CDK2- and CycE-GST fusion proteins, purified from baculovirus-infected insect cells (Sf9), were purchased from ProQinase GmbH, Freiburg. The histone IIIS used as kinase substrate was purchased from Sigma. CDK2/CycE (50 ng/measurement point) was incubated in the presence of various concentrations of test substances (0 μM, and within the range 0.01-100 μM) in assay buffer [50 mM Tris/HCl pH 8.0, 10 mM MgCl2, 0.1 mM Na ortho-vanadate, 1.0 mM dithiothreitol, 0.5 μM ATP, 10 μg/measurement point histone IIIS, 0.2 μCi/measurement point ^33P-gamma ATP, 0.05% NP40, 1.25% dimethyl sulphoxide] at 22° C. for 10 min. The reaction was stopped by adding EDTA solution (250 mM, pH 8.0, 15 μl/measurement point).
15 μl of each reaction mixture were loaded onto P30 filter strips (from Wallac), and non-incorporated ^33P-ATP was removed by washing the filter strips three times in 0.5% strength phosphoric acid for 10 min each time.
After the filter strips had been dried at 70° C. for 1 hour, the filter strips were covered with scintillator strips (MeltiLex™ A, from Wallac) and baked at 90° C. for 1 hour. The amount of incorporated ^33P (substrate phosphorylation) was determined by scintillation measurement in a gamma radiation counter (Wallac).

c-kit = target: T2, c-kit (Homo sapiens, UniProt P10721); assay: c-Kit kinase assay; settings: 10 μM ATP, 22° C., 30 min
T2 construct: made in house; host or cells: E. coli
Method: Recombinant c-kit protein was expressed in E. coli and then purified. The kinase substrate used was the biotinylated peptide having the amino acid sequence biotin-poly GluTyr, which was purchased from CisBio.
C-kit [test volume 5 μl] was incubated in the presence of various concentrations of test substances (0 μM, and 10 measurement points within the range 0.001-20 μM in duplicate) in assay buffer [50 mM HEPES pH 7.0, 1.0 mM MgCl2, […], 0.1 mM Na ortho-vanadate, 1.0 mM dithiothreitol, 0.001% NP40, 10 μM ATP, 0.03 μM substrate peptide biotin-poly GluTyr, 1.0% dimethyl sulphoxide] at 22° C. for 30 min. The reaction was stopped by adding 5 μl of an EDTA/detection solution [50 mM HEPES pH 7.5, 80 mM EDTA, 0.2% BSA, 0.1 μM streptavidin-XLent (from CisBio), 1 nM PT66-Eu (from PerkinElmer)]. The fluorescence emission at 620 nm and 665 nm after excitation with light of the wavelength 350 nm was measured in a Rubystar HTRF instrument from BMG Labsystems. The measured data (ratio of emission 665 divided by emission 620 multiplied by 10 000) were normalized to 0% inhibition (enzyme reaction without inhibitor) and 100% inhibition (all assay components apart from enzyme). The IC50 values were determined by means of a 4-parameter fit using the company's own software.

KDR = target: T3, KDR (Homo sapiens, UniProt P35968); assay: KDR kinase assay; settings: 1 μM ATP, 22° C., 20 min
T3 construct: made in house; host or cells: SF9 insect cells
Method: Recombinant GST-KDR protein was expressed in SF9 insect cells and then purified. The kinase substrate used was the biotinylated peptide biotin-polyGluAlaTyr from Cisbio International.
GST-KDR [test volume 15 μl] was incubated in the presence of various concentrations of test substances (0 μM, and 10 measurement points within the range 0.001-20 μM in duplicate) in assay buffer [50 mM HEPES pH 7.0, 25 mM MgCl2, 5 mM MgCl2, 0.5 mM Na ortho-vanadate, 1 mM dithiothreitol, 10% glycerol, 1 μM ATP, 23.5 mg/L substrate peptide biotin-polyGluAlaTyr, 1% dimethyl sulphoxide, 1× protease inhibitor mix (from Roche)] at 22° C. for 20 min. The reaction was stopped by adding 5 μl of an EDTA/detection solution [50 mM HEPES pH 7.0, 250 mM EDTA, 0.5% BSA, 22 mg/L streptavidin-XL (from CisBio), 1 mg/L PT66-Eu (from PerkinElmer)]. The fluorescence emission at 620 nm and 665 nm after excitation with light of the wavelength 350 nm was measured in a Rubystar HTRF instrument from BMG Labsystems 60 minutes after addition of the EDTA/detection solution.
The measured data (ratio of emission 665 divided by emission 620 multiplied by 10 000) were normalized to 0% inhibition (enzyme reaction without inhibitor) and 100% inhibition (all assay components apart from enzyme). The IC50 values were determined by means of a 4-parameter fit using the company's own software.

T2 sequence (P10721 26-976): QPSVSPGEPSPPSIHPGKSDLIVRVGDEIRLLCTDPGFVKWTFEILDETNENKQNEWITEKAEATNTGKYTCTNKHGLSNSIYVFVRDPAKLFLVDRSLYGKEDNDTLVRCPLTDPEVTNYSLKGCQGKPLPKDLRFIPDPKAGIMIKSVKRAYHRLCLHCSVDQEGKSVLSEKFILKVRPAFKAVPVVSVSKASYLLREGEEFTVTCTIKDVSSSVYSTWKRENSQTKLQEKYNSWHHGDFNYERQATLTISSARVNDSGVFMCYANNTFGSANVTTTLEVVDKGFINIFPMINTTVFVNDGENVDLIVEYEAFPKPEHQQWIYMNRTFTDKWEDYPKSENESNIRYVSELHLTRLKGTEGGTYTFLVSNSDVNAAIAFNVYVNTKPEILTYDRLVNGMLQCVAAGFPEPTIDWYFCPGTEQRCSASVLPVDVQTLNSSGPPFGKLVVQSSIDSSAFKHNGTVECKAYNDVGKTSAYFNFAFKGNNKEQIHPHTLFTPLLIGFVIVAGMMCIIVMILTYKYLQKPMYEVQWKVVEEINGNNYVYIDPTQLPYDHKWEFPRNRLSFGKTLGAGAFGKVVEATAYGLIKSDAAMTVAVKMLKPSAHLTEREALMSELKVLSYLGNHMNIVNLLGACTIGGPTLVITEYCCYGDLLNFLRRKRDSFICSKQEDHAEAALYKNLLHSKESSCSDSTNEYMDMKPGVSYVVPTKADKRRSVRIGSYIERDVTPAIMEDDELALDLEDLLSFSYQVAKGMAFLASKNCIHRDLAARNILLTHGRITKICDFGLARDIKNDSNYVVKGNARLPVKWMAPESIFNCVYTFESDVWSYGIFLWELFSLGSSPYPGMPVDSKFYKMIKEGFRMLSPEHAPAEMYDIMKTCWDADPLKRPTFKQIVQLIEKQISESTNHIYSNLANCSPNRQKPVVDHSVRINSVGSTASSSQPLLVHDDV
T3 sequence (P35968 20-1356, species assumed): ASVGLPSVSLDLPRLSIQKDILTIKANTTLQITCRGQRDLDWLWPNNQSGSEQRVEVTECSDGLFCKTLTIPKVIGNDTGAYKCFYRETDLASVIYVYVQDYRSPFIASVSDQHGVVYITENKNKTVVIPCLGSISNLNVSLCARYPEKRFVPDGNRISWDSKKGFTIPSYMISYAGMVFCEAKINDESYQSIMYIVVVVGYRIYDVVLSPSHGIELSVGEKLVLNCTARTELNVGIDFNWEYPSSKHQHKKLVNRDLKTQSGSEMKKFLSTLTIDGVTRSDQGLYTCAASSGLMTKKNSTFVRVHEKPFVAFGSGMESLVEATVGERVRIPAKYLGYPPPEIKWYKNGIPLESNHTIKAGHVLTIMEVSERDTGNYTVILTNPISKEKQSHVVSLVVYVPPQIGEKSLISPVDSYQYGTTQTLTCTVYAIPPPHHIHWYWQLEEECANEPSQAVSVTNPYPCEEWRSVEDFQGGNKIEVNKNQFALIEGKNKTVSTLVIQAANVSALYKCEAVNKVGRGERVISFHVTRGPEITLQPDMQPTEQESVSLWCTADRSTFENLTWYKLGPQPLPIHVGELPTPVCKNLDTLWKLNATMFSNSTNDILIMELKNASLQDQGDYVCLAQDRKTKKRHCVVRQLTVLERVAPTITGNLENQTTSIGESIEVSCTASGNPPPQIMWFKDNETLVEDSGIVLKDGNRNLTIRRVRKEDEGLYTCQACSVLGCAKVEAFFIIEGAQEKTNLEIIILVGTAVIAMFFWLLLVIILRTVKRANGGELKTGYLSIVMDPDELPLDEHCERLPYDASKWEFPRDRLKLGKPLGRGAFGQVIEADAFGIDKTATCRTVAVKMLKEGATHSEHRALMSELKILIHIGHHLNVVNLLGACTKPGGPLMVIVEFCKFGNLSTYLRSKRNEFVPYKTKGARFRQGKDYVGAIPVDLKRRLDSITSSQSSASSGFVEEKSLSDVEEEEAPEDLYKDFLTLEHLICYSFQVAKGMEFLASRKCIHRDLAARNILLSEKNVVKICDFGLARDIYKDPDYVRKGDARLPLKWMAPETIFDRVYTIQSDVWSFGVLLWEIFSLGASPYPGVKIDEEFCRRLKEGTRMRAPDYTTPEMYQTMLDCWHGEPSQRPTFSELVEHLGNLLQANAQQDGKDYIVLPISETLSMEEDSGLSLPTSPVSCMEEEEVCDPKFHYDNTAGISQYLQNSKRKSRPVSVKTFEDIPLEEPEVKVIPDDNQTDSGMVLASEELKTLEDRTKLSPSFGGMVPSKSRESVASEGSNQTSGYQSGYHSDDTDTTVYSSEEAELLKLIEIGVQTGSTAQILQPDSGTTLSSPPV

SMILES	IC50 (CDK2/CycE) [nM]	IC50 (c-kit) [nM]	IC50 (KDR) [nM]
CCOC(=O)N=S(C)(=O)c1ccc2cc1NCCCCNc1nc(ncc1Br)N2 (racemic) [Example 1, (RS)—S-[1^5-Bromo-2,4,9-triaza-1(2,4)-pyrimidina-3(1,3)-benzenacyclononaphan-3^4-yl]-N-(ethoxycarbonyl)-S-methylsulphoximide]	323	29	61
CCOC(=O)N=S(C)(=O)c1ccc2cc1NCCCCNc1nc(ncc1I)N2 (racemic) [Example 4, (RS)—N-(Ethoxycarbonyl)-S-[1^5-iodo-2,4,9-triaza-1(2,4)-pyrimidina-3(1,3)-benzenacyclononaphan-3^4-yl]-S-methylsulphoximide]	319	23	9
C[Si](C)(C)CCS(=O)(=O)N=S(C)(=O)c1ccc2cc1NCCCCNc1nc(ncc1Br)N2 (racemic) [Example 5, (RS)—S-[1^5-Bromo-2,4,9-triaza-1(2,4)-pyrimidina-3(1,3)-benzenacyclononaphan-3^4-yl]-S-methyl-N-[2-(trimethylsilyl)ethylsulphonyl]sulphoximide]	> 1000	164	22
CCNC(=O)N=S(C)(=O)c1ccc2cc1NCCCCNc1nc(ncc1Br)N2 (racemic) [Example 6, (RS)—S-[1^5-Bromo-2,4,9-triaza-1(2,4)-pyrimidina-3(1,3)-benzenacyclononaphan-3^4-yl]-N-(ethylcarbamoyl)-S-methylsulphoximide]	71	14	22
CCCS(=O)(=O)N=S(C)(=O)c1ccc2cc1NCCCCNc1nc(ncc1Br)N2 (racemic) [Example 7, (RS)—S-[1^5-Bromo-2,4,9-triaza-1(2,4)-pyrimidina-3(1,3)-benzenacyclononaphan-3^4-yl]-S-methyl-N-(propylsulphonyl)sulphoximide]	> 1000	17	7
CCCOC(=O)N=S(C)(=O)c1ccc2cc1OCCCCNc1nc(ncc1Br)N2 (racemic) [Example 8, (RS)—S-[1^5-Bromo-4-oxa-2,9-diaza-1(2,4)-pyrimidina-3(1,3)-benzenacyclononaphan-3^4-yl]-S-methyl-N-(propoxycarbonyl)sulphoximide]	> 1000	357	136
C[Si](C)(C)CCS(=O)(=O)N=S(C)(=O)c1ccc2cc1OCCCCNc1nc(ncc1Br)N2 (racemic) [Example 9, (RS)—S-[1^5-Bromo-4-oxa-2,9-diaza-1(2,4)-pyrimidina-3(1,3)-benzenacyclononaphan-3^4-yl]-S-methyl-N-[2-(trimethylsilyl)ethylsulphonyl]sulphoximide]	> 1000	> 12500	60
CCOC(=O)N=S(C)(=O)c1ccc2cc1NCCCCNc1nc(ncc1Br)N2 (single isomer, unassigned) [Example 2]	229	46	198
CCOC(=O)N=S(C)(=O)c1ccc2cc1NCCCCNc1nc(ncc1Br)N2 (single isomer, unassigned) [Example 3]	990	64	289
